For one experiment, the target named is Wee1 (Homo sapiens, UniProt P30291). Put plainly: KinomeScan competition binding assay. Details: purchased DiscoveRx Corporation (KinomeScan service). From the text: (§1) Detailed assay methodologies can be found in the relevant references cited herein, or in the KinaseProfiler Service Assay Protocols (v54, 2011) available from EMD Millipore (www.emdmillipore.com), or from the KinomeScan website (www.kinomescan.com), as appropriate. (For a more detailed description of KINOMEscan's assay technology, see: Fabian et al. A small molecule-kinase interaction map for clinical kinase inhibitors. Nat. Biotechnol. 23, 329-336 (2005)). A summary is provided below.
(§2) KinomeScan™ assays (DiscoveRx Corporation, San Diego, Calif., USA) are active-site-directed competition binding assays. […] The amount of kinase captured in test versus control samples is determined by using a qPCR method that detects the associated DNA label on each kinase molecule. Dissociation constants (Kd) for test compound-kinase interactions are calculated by measuring the amount of kinase captured on the solid support as a function of the test compound concentration.

For another experiment, the target named is Abl (T315I) (Homo sapiens, UniProt P00519, T315I). Put plainly: KinomeScan competition binding assay. On the set-up: purchased DiscoveRx Corporation (KinomeScan service).
From the text: as §1, §2

The target in the next experiment is Tyro3 (Homo sapiens, UniProt Q06418). Put plainly: KinomeScan competition binding assay. Details: purchased DiscoveRx Corporation (KinomeScan service).
From the text: as §1, §2

Another experiment has as its target Yes (Homo sapiens, UniProt P07947). Put plainly: KinomeScan competition binding assay. On the set-up: purchased DiscoveRx Corporation (KinomeScan service).
From the text: as §1, §2

The next experiment has as its target Abl(M351T) (Homo sapiens, UniProt P00519, M351T). The experiment is described as follows: KinomeScan competition binding assay. Details: purchased DiscoveRx Corporation (KinomeScan service).
From the text: as §1, §2

For another experiment, the target named is Abl(Q252H) (Homo sapiens, UniProt P00519, Q252H). The experiment is described as follows: KinomeScan competition binding assay. Details: purchased DiscoveRx Corporation (KinomeScan service).
From the text: as §1, §2

Another experiment addresses Abl(Y253F) (Homo sapiens, UniProt P00519, Y253F). The experiment is described as follows: KinomeScan competition binding assay. Details: purchased DiscoveRx Corporation (KinomeScan service).
From the text: as §1, §2

A further experiment concerns the target c-Kit (D816H) (Homo sapiens, UniProt P10721, D816H). The experiment is described as follows: KinomeScan competition binding assay. On the set-up: purchased DiscoveRx Corporation (KinomeScan service).
From the text: as §1, §2

The next experiment concerns the target Ret (V804L) (Homo sapiens, UniProt P07949, V804L). The experiment is described as follows: KinomeScan competition binding assay. On the set-up: purchased DiscoveRx Corporation (KinomeScan service).
From the text: as §1, §2

The target in the next experiment is Abl(H396P) (Homo sapiens, UniProt P00519, H396P). Put plainly: KinomeScan competition binding assay. On the set-up: purchased DiscoveRx Corporation (KinomeScan service).
From the text: as §1, §2

The next experiment concerns the target Ret (V804M) (Homo sapiens, UniProt P07949, V804M). The experiment is described as follows: KinomeScan competition binding assay. Details: purchased DiscoveRx Corporation (KinomeScan service).
From the text: as §1, §2

A further experiment deals with Ret (Homo sapiens, UniProt P07949). The experiment is described as follows: KinomeScan competition binding assay. Details: purchased DiscoveRx Corporation (KinomeScan service).
From the text: as §1, §2

The next experiment deals with TEK (Homo sapiens, UniProt Q02763). Put plainly: KinomeScan competition binding assay. On the set-up: purchased DiscoveRx Corporation (KinomeScan service).
From the text: as §1, §2

For a further experiment, the target named is Flt3 (Homo sapiens, UniProt P36888). The experiment is described as follows: KinomeScan competition binding assay. Details: purchased DiscoveRx Corporation (KinomeScan service). The following applies: Flt3 wild-type.
From the text: as §1, §2

The target in a further experiment is Flt3 (D835Y) (Homo sapiens, UniProt P36888, D835Y). The experiment is described as follows: KinomeScan competition binding assay. On the set-up: purchased DiscoveRx Corporation (KinomeScan service).
From the text: as §1, §2

In the next experiment the target is Flt1 (Homo sapiens, UniProt P17948). Put plainly: KinomeScan competition binding assay. Details: purchased DiscoveRx Corporation (KinomeScan service).
From the text: as §1, §2

Experiment [1] has as its system Ba/F3 cells (WT, FLT3 WT, FLT3-ITD, D835Y). The experiment is described as follows: Annexin V-PI apoptosis/cell death assay, four Ba/F3 cell lines. It is filed as cell-based, Murine. From the text: Murine pro-B lymphocyte line Ba/F3 wild type (Ba/F3 WT), and Ba/F3 lines stably transduced with expression vectors that encoded wild-type human FLT3 (Ba/F3 FLT3 WT cells) or human FLT3 containing an ITD mutation (Ba/F3-ITD cells) or D835Y (Ba/F3 D835Y cells) point mutations, which lead to constitutively functional activation of the protein, were obtained from Bjørn Tore Gjertsen (Department of Clinical Science, Hematology Section, University of Bergen, Bergen, Norway). Ba/F3 WT, Ba/F3 FLT3 WT and Ba/F3 835Y cells were maintained in RPMI-1640 medium, containing 10% fetal calf serum (FCS, HyClone, Logan, UT), 2 mM L-glutamine and 50 U/mL penicillin-streptomycin (Sigma-Aldrich, Inc, St Louis, Mo., USA), and 10% WEHI-3B conditioned medium as a source of murine interleukin-3 (mIL-3). […]
Quantification of apoptotic and necrotic cells was determined by measuring externalization of phosphatidylserine with annexin V, conjugated to Alexa® Fluor 647 (Invitrogen, Molecular Probes, OR, USA) and using propidium iodide (PI; Sigma-Aldrich) as a dead-cell counterstain. […] After drug treatment cells were stained according the manufacturer's protocol, and subsequently analysed on an Accuri C6 flow cytometer (Becton Dickinson Immunocytometry Systems, San Jose, Calif., USA). […] The percent viable cells are expressed as percentage of untreated cells, performed in a single experiment.

Structures are written as SMILES. pKd: −log10 of the molar value.

The results in this text go back to patent publication US9801880B2, “Use of kinase inhibitors” (BerGenBio AS, priority 2013, dated 2017).

Broadly, the Kd is the concentration at which binding is half-saturated. Read a low Kd as tighter binding. By pKd is commonly meant the Kd on a negative log10 scale, so that one unit is a factor of ten. A lower pKd goes with a high Kd.

c-Kit (D816H), sequence (P10721 26-976 D816H): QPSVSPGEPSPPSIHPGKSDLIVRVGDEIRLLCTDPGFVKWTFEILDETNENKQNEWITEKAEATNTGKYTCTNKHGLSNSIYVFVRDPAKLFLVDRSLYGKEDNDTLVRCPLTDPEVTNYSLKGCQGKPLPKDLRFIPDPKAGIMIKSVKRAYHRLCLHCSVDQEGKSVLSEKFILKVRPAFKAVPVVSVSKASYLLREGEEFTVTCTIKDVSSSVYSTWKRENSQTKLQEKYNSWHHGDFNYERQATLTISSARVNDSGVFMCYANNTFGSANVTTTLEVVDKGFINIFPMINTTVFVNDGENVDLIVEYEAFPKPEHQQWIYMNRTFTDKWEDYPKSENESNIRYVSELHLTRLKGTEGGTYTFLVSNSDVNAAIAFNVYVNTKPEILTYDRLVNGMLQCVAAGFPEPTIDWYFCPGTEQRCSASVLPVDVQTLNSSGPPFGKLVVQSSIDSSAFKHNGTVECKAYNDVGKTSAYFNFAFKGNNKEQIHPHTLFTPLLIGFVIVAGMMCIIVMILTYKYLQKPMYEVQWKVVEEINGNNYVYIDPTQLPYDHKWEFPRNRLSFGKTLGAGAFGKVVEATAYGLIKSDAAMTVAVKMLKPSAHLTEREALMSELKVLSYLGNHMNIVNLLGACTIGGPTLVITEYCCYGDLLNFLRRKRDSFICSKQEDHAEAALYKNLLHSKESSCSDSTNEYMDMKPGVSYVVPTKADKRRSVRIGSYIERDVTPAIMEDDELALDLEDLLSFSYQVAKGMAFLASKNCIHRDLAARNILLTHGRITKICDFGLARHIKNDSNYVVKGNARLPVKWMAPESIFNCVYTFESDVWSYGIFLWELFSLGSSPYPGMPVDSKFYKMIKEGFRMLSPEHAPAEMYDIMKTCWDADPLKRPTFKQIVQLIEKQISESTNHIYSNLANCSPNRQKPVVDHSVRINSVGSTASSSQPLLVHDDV
TEK, sequence (Q02763 23-1124): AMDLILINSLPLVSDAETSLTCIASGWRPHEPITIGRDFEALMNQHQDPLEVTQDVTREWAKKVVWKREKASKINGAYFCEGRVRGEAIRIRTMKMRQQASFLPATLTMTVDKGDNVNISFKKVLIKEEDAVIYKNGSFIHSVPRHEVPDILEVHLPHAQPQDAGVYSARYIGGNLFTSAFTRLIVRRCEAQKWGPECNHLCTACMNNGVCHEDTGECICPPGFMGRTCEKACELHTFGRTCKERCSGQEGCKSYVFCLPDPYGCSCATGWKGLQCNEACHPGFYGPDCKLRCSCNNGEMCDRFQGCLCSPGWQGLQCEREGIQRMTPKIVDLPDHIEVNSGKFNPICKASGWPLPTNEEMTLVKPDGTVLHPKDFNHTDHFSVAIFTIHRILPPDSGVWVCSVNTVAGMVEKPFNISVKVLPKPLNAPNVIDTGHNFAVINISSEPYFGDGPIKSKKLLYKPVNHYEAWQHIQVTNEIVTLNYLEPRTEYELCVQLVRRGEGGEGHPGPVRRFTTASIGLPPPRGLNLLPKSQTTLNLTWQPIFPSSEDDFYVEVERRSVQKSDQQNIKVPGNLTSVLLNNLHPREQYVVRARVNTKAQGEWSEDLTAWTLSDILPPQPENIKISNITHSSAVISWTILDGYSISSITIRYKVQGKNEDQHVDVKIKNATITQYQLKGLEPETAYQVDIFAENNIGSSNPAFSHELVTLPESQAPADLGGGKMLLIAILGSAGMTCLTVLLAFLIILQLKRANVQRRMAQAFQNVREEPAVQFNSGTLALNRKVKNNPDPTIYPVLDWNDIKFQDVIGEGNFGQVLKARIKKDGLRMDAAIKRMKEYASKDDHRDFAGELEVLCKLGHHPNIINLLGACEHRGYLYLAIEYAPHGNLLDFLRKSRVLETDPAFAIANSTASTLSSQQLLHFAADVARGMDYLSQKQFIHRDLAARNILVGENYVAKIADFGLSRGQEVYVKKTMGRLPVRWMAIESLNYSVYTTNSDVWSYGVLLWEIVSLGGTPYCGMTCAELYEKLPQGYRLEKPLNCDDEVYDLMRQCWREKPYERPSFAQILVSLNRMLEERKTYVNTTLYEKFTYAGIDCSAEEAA
Tyro3, sequence (Q06418 41-890): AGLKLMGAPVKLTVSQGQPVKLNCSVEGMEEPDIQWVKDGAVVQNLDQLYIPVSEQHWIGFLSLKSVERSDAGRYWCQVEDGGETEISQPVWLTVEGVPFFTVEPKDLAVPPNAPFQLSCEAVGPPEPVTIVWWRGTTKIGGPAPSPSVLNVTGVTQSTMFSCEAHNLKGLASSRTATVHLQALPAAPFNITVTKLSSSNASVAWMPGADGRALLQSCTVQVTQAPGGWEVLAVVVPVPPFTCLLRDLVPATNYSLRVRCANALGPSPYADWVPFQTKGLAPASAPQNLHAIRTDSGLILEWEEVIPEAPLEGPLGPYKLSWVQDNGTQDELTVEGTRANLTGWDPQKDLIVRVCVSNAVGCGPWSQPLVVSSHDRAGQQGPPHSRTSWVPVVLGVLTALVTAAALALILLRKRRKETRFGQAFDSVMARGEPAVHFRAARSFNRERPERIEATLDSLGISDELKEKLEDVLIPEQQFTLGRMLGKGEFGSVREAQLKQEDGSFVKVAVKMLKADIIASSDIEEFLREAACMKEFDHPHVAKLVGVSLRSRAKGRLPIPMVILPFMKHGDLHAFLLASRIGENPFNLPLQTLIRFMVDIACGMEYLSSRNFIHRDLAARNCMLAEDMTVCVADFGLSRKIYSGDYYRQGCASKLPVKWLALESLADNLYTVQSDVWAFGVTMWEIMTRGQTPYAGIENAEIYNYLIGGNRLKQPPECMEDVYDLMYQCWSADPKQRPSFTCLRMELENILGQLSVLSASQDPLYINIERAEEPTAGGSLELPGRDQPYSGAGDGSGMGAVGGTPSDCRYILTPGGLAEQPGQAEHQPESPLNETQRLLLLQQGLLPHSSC
Ret (V804L), sequence (P07949 29-1114 V804L): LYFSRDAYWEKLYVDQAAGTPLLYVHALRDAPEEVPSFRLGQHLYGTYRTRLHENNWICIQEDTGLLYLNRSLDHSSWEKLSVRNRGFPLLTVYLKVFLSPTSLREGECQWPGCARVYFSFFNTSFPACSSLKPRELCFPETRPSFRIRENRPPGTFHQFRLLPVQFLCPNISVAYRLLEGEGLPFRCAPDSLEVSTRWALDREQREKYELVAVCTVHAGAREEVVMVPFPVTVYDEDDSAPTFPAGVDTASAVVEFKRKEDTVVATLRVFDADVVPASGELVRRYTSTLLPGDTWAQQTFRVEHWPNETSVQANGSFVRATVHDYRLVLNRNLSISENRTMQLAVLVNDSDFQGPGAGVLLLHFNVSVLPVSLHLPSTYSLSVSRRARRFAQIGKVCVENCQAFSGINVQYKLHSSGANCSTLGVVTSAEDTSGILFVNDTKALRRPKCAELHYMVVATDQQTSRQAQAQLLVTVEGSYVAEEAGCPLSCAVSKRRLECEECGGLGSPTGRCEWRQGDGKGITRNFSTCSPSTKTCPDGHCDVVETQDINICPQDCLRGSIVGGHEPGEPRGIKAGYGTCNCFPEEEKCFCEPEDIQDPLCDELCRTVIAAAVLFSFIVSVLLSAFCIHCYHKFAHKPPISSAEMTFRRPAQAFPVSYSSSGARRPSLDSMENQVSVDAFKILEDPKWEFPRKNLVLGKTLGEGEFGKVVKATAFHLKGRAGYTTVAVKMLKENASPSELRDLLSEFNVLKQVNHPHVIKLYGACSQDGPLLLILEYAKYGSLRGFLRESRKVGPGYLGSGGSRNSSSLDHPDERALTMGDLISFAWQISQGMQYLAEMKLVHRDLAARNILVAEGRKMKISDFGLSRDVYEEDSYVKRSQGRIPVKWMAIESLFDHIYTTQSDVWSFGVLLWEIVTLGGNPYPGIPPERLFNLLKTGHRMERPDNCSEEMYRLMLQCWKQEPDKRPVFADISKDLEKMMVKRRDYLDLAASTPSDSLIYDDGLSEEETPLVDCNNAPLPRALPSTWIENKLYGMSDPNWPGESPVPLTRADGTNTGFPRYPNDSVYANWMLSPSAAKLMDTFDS
Ret (V804M), sequence (P07949 29-1114 V804M): as the sequence (P07949 29-1114 V804L) above, with L776M counted along it
Ret, sequence (P07949 29-1114): as the sequence (P07949 29-1114 V804L) above, with L776V counted along it
Yes, sequence (P07947 whole entry): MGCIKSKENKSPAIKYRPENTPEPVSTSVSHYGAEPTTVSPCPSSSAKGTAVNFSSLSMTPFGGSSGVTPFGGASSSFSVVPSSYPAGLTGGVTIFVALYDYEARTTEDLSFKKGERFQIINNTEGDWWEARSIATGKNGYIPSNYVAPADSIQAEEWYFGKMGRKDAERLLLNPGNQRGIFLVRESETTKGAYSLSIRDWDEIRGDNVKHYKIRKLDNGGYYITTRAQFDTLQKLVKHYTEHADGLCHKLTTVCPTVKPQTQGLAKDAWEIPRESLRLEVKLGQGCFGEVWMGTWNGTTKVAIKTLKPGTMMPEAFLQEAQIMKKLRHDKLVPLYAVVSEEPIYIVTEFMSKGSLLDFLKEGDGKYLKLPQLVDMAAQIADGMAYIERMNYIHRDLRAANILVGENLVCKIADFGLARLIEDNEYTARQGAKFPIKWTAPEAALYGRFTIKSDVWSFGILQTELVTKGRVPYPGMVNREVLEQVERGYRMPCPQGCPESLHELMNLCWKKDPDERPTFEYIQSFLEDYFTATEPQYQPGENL

`Nc1nc(Nc2ccc3c(c2)CC[C@@H](N2CCCC2)CC3)nn1-c1cc2c(nn1)-c1ccccc1CCC2` [Compound A, 1-(6,7-dihydro-5H-benzo[6,7]cyclohepta[1,2-c]pyridazine-3-yl)-N^3-(7-(S)-(pyrrolidin-1-yl)-6,7,8,9-tetrahydro-5H-benzo[7]annulene-2-yl)-1H-1,2,4-triazole-3,5-diamine]: the Kd was 17 nM at Wee1; 10 nM at Abl (T315I); over 1000 nM at Tyro3; 810 nM on Yes; 104 nM at Abl(M351T); 112 nM on Abl(Q252H). Further, the Kd at Abl(Y253F) turned out to be 18 nM; at Ret (V804L) it was 90 nM; at Abl(H396P), 57 nM; on Ret (V804M), 72 nM; on Ret, 73 nM; at TEK, 270 nM. For the same molecule, the Kd on Flt3 is 50 nM; on Flt3 (D835Y), 11.2 nM; on Flt1, 400 nM. Moreover, at c-Kit (D816H), the pKd was 7.20. Also, the therapeutic window in [1] (investigated Ba/F3 cell lines, 48 hours) lay in the range of 0.5 to 3 µM. The “induction of apoptosis at higher doses” value in experiment [1] (≧3 μM, all cell lines regardless of FLT3 status) is on record as “massive induction of apoptosis”.
